According to patent US20260285850A1, “SUBSTITUTED OXAZOLIDINONES AND IMIDAZOLINONES AS HERBICIDES” (FMC CORPORATION, priority 2023, published 2026):

Legend:
Format in all cases: in vivo
[1] = tested on: barnyardgrass (Echinochloa crus-galli); test: Test A preemergence soil spray, visual injury rating 0-100; settings: 10 days
How it was run: (§1)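 Visual injury ratings (0, no effect; 100, complete control) were assigned relative to untreated plants 10 days after treatment. Test chemicals, formulated with a surfactant-containing non-phytotoxic solvent, were applied in loam-sand soil either as a directed soil spray before emergence or to emerged plants, and plants were kept in a greenhouse.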

[2] = tested on: blackgrass (Alopecurus myosuroides); test: as above; settings: 10 days
How it was run: as §1

corn (Zea mays) [3] = test: as above; settings: 10 days
How it was run: as §1

[4] = tested on: green foxtail (Setaria viridis); test: as above; settings: 10 days
How it was run: as §1

kochia (Bassia scoparia) [5] = test: as above; settings: 10 days
How it was run: as §1

[6] = tested on: oat, wild (wild oat, Avena fatua); test: as above; settings: 10 days
How it was run: as §1

[7] = tested on: palmer (palmer amaranth, palmer pigweed, Amaranthus palmeri); test: as above; settings: 10 days
How it was run: as §1

[8] = tested on: ragweed (common ragweed, Ambrosia artemisiifolia); test: as above; settings: 10 days
How it was run: as §1

[9] = tested on: ryegrass, Italian (italian ryegrass, Lolium multiflorum); test: as above; settings: 10 days
How it was run: as §1

soybean (Glycine max) [10] = test: as above; settings: 10 days
How it was run: as §1

[11] = tested on: wheat (Triticum aestivum); test: as above; settings: 10 days
How it was run: as §1

[12] = tested on: barnyardgrass (Echinochloa crus-galli); test: Test A postemergence application, visual injury rating 0-100
How it was run: as §1

[13] = tested on: blackgrass (Alopecurus myosuroides); test: as above
How it was run: as §1

corn (Zea mays) [14] = test: as above
How it was run: as §1

[15] = tested on: galium (catchweed bedstraw, Galium aparine); test: as above
How it was run: as §1

[16] = tested on: green foxtail (Setaria viridis); test: as above
How it was run: as §1

[17] = tested on: horseweed (Erigeron canadensis); test: as above
How it was run: as §1

kochia (Bassia scoparia) [18] = test: as above
How it was run: as §1

[19] = tested on: oat, wild (wild oat, Avena fatua); test: as above
How it was run: as §1

[20] = tested on: palmer (palmer amaranth, palmer pigweed, Amaranthus palmeri); test: as above
How it was run: as §1

[21] = tested on: ragweed (common ragweed, Ambrosia artemisiifolia); test: as above
How it was run: as §1

[22] = tested on: ryegrass, Italian (italian ryegrass, Lolium multiflorum); test: as above
How it was run: as §1

soybean (Glycine max) [23] = test: as above
How it was run: as §1

[24] = tested on: wheat (Triticum aestivum); test: as above
How it was run: as §1

[25] = tested on: barnyardgrass (Echinochloa crusgalli); test: Test B flooded paddy test, visual plant response rating 0-100; settings: 250 g ai/ha, Flood, applied to paddy water, evaluated after 13 days
How it was run: (§2)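 Compounds applied to standing paddy water (3 cm above soil, maintained for the test duration) on 2-leaf-stage plants; visual rating vs controls at 13 days, greenhouse.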

[26] = tested on: ducksalad (Heteranthera limosa); test: as above; settings: 250 g ai/ha, Flood, applied to paddy water, evaluated after 13 days
How it was run: as §2

rice (Oryza sativa) = test: as above; settings: 250 g ai/ha, Flood, applied to paddy water, evaluated after 13 days
How it was run: as §2

[27] = tested on: sedge, umbrella (small-flower umbrella sedge, Cyperus difformis); test: as above; settings: 250 g ai/ha, Flood, applied to paddy water, evaluated after 13 days
How it was run: as §2

[28] = 62 g ai/ha, 0 = no effect, 100 = complete control
[29] = 62 g ai/ha, postemergence, 10 days, 0 = no effect, 100 = complete control
[30] = Postemergence, 16 g ai/ha, greenhouse 10 days, 0 no effect, 100 complete control

COC(=O)C1C=CC(NC(=O)C2(C)CN(c3cccc(OC(F)(F)F)c3)C(=O)O2)C1 (mixture of isomers) [Compound 101]
80: Oat, Wild plant response rating (0-100) [6, 28] | Ryegrass, Italian plant response rating (0-100) [9, 28] | Blackgrass plant response rating (0 to 100 scale) [13, 30] | Wheat plant response rating (0-100) [24, 29]
30: Ragweed plant response rating (0-100) [21, 29] | Wheat plant response rating (0 to 100 scale) [24, 30]
70: Oat, Wild plant response rating (0 to 100 scale) [19, 30] | Ryegrass, Italian plant response rating (0-100) [22, 29]
0: Barnyardgrass plant response rating ([1]; 16 g ai/ha, 0 to 100 scale) | Blackgrass plant response rating ([2]; 16 g ai/ha, 0 to 100 scale) | Corn plant response rating (corn (Zea mays) [3]; 16 g ai/ha, 0 to 100 scale) | Foxtail, Green plant response rating ([4]; 16 g ai/ha, 0 to 100 scale) | Foxtail, Green plant response rating (0-100) [4, 28] | Kochia plant response rating (kochia (Bassia scoparia) [5]; 16 g ai/ha, 0 to 100 scale) | Kochia plant response rating (0-100) (kochia (Bassia scoparia) [5]; [28]) | Oat, Wild plant response rating ([6]; 16 g ai/ha, 0 to 100 scale) | Pigweed, Palmer plant response rating ([7]; 16 g ai/ha, 0 to 100 scale) | Pigweed, Palmer plant response rating (0-100) [7, 28] | Ragweed plant response rating ([8]; 16 g ai/ha, 0 to 100 scale) | Ryegrass, Italian plant response rating ([9]; 16 g ai/ha, 0 to 100 scale) | Soybean plant response rating (soybean (Glycine max) [10]; 16 g ai/ha, 0 to 100 scale) | Soybean plant response rating (0-100) (soybean (Glycine max) [10]; [28]) | Wheat plant response rating ([11]; 16 g ai/ha, 0 to 100 scale) | Pigweed, Palmer plant response rating (0 to 100 scale) [20, 30] | Ragweed plant response rating (0 to 100 scale) [21, 30] | Plant response rating, Barnyardgrass (0 to 100 scale, 0 is no effect and 100 is complete control) [25] | Plant response rating, Ducksalad (0 to 100 scale, 0 is no effect and 100 is complete control) [26] | Plant response rating, Rice (0 to 100 scale, 0 is no effect and 100 is complete control) (rice (Oryza sativa)) | Plant response rating, Sedge, Umbrella (0 to 100 scale, 0 is no effect and 100 is complete control) [27]
50: Blackgrass plant response rating (0-100) [2, 28] | Corn plant response rating (0-100) (corn (Zea mays) [3]; [28]) | Corn plant response rating (0 to 100 scale) (corn (Zea mays) [14]; [30]) | Galium plant response rating (0 to 100 scale) [15, 30] | Foxtail, Green plant response rating (0-100) [16, 29] | Ryegrass, Italian plant response rating (0 to 100 scale) [22, 30]
60: Barnyardgrass plant response rating (0-100) [1, 28] | Barnyardgrass plant response rating (0 to 100 scale) [12, 30] | Galium plant response rating (0-100) [15, 29] | Kochia plant response rating (0-100) (kochia (Bassia scoparia) [18]; [29]) | Soybean plant response rating (0-100) (soybean (Glycine max) [23]; [29])
90: Barnyardgrass plant response rating (0-100) [12, 29] | Blackgrass plant response rating (0-100) [13, 29] | Corn plant response rating (0-100) (corn (Zea mays) [14]; [29]) | Oat, Wild plant response rating (0-100) [19, 29]
10: Ragweed plant response rating (0-100) [8, 28] | Foxtail, Green plant response rating (0 to 100 scale) [16, 30] | Horseweed plant response rating (0-100) [17, 29] | Horseweed plant response rating (0 to 100 scale) [17, 30] | Kochia plant response rating (0 to 100 scale) (kochia (Bassia scoparia) [18]; [30]) | Pigweed, Palmer plant response rating (0-100) [20, 29]
40: Wheat plant response rating (0-100) [11, 28] | Soybean plant response rating (0 to 100 scale) (soybean (Glycine max) [23]; [30])
